Legend:
[1] = Density and estimated spherical radius of analytes and supporting ions; type: physicochemical
[2] = Expected valence charge of analytes and ions based on pKas; type: physicochemical; conditions: for Expected valence charge: maximal negative charge, intraluminal pH of 12; for Valence charge level (Zanalyte): used in the empirical model, Example 2
From the text: In order to investigate any dependency of the signal on the analyte concentration, the concentrations of the molecular analytes were varied from 10^−8 to 10^−2 M in 10^−5 M NaF solution. Because NaF dissociates into Na^+ and F^−, and F^− will form HF in solution (due to HF being a weak acid), it was important to ensure that the concentration of HF was negligible compared with the concentration of the molecular analytes and supporting electrolytes. […] The specific analytes used in this study were chosen to have distinct acid dissociation constants (pKas) and to be relatively similar in size (Table 2). […] NaCl was chosen as the supporting electrolyte in this pH experiment in order to maintain a homogeneous ion population with the titration reagents, NaOH and HCl. It was desirable to avoid using HF as a titration reagent, due to the risk of damaging the nanopore device and because HF is a weak acid. In low pH conditions, the concentration of undissociated HF would increase to non-negligible levels. Since HCl and NaOH are a strong acid and base, respectively, there was no risk of producing undissociated molecules at low or high pHs. […] In order to characterize this energetic balance, we estimate the pH of the intraluminal environment by considering the variable valence charges and pKas of the analytes. Table 3 lists the expected charge on each analyte at different pHs based on the pKas of the individual analytes.

[3] = cited from earlier work
[4] = 21° C.; cited from earlier work
[5] = Saturation of NaF solution; type: physicochemical; conditions: in this study
From the text: The SNR is consistent for electrolyte concentrations <1 M, and the sudden decrease in SNR at 1 M NaF is indicative of a saturation effect, where saturation of the solution would preclude significant changes to the electrochemical potential of the EDL. By considering the charge density and steady state double layer potential as response curves, we can explain the loss of signal quality at high concentrations of supporting electrolyte (FIG. 3(c)). The increase in steady-state potential and charge density (calculated from the model) slows at high concentrations, and a similar effect occurs experimentally to the steady state double layer potential. The decrease in slope of the response curves at high concentration will result in smaller signals from the analytes, resulting in the decrease in SNR observed at high concentrations of supporting electrolyte. Since the measured steady state potential and solution saturation follow similar curves, this may be a useful method for quantitatively characterizing solutions, as well as a method of characterizing individual analyte molecules.

Row | Estimated spherical radius [1] [nm] | Expected valence charge [2] | Valence charge at pH ([2]; pH 1) | Valence charge at pH ([2]; pH 2, 3) | Valence charge at pH ([2]; pH 4) | Valence charge at pH ([2]; pH 5, 6) | Valence charge at pH ([2]; pH 7, 8, 9, 10) | Valence charge at pH ([2]; pH 11) | Valence charge at pH ([2]; pH 12) | Valence charge level (Zanalyte) [2] | Saturated NaF solution reached [5] | SMILES | pKa 1 [3] | Saturation of NaF [4] [M] | pKa 2 [3]
1 | 0.27 | −1 | 0 | −1 | −1 | −1 | −1 | −1 | −1 | −1 | – | O=C(O)C(=O)O [Oxalic acid] | – | – | –
2 | 0.32 | −1 | 0 | 0 | 0 | 0 | 0 | −1 | −1 | −1 | – | Oc1ccc(O)cc1 [Hydroquinone] | 10.35 | – | –
3 | – | – | – | – | – | – | – | – | – | – | approximately 1 M | [F-].[Na+] [NaF] | – | 0.96 | –
4 | 0.21 | 1 | – | – | – | – | – | – | – | – | – | [Na+] [Na^+] | – | – | –
5 | 0.35 | −2 | 0 | 0 | 0 | −1 | −1 | −1 | −2 | −2 | – | O=C1O[C@H]([C@@H](O)CO)C(O)=C1O [L-Ascorbic acid] | – | – | 11.7
6 | 0.26 | 1 | – | – | – | – | – | – | – | – | – | [K+] [K^+] | – | – | –
7 | 0.21 | – | – | – | – | – | – | – | – | – | – | Cl [Cl−] | – | – | –
8 | 0.37 | −3 | 0 | 0 | −1 | −2 | −3 | −3 | −3 | −3 | – | O=C(O)CC(O)(CC(=O)O)C(=O)O [Citric Acid] | – | – | –
9 | 0.17 | −1 | – | – | – | – | – | – | – | – | – | F [F−] | – | – | –

— patent US10883962B2, “Electrical double layer in nanopores for detection and identification of molecules and submolecular units” (University of Kentucky Research Foundation, priority 2017, dated 2021)
